Assay results from patent US11883423B2, “Nucleobase analogue derivatives and their applications” (BOARD OF REGENTS, THE UNIVERSITY OF TEXAS SYSTEM, priority 2014, dated 2024).
Counter-ions that a name gives are not always drawn.

Experiments:
BxPC-3 cells [1] = assay: Anti-proliferative activity, MTT assay, BxPC-3 cells; assay type: cell-based, human; conditions: Homo sapiens; BxPC-3 cells, 72 h
Description: (§1) The anti-proliferative activity of Gem-DHA was evaluated in Panc-02, TC-1, Panc-1-Luc, and BxPC-3 cell lines. For Panc-02 and TC-1 cells, cells (1,500/well for Panc-02 and 3,000/well for TC-1) were seeded in 96-well plates and incubated at 37° C. and 5% CO2 overnight. The cells were then treated with various concentrations of Gem-DHA or other compounds for 24 h. For BxPC-3 and Panc-1-Luc cells, 3,000 and 1,000 cells/well were used, respectively, and cells were co-incubated with the Gem-DHA for 72 h. Cell viability was determined using an MTT assay as previously described (Naguib YW et al. Mol Pharm. 2014, 11(4), 1239-1249). Gemcitabine HCl was dissolved in cell culture medium, whereas Gem-DHA and DHA were dissolved in dimethylsulfoxide (DMSO). The values of IC50 were calculated using GraphPad Prism (GraphPad software, Inc., La Jolla, CA).

Panc-02 cells = assay: Anti-proliferative activity, MTT assay, Panc-02 cells; assay type: cell-based; conditions: Mus musculus, Panc02, 24 h
Description: as §1

Panc-02 tumor cells = assay: Cytotoxicity after 4 h co-incubation, MTT test; assay type: cell-based, mouse; conditions: Panc-02 cells, at concentrations of more than 80 μM
Description: The mechanisms underlying the cytotoxicity of the Gem-DHA may be different from that of gemcitabine. For example, in cell culture studies, Panc-02 cells were seeded into 96-well plates (1,500 cells per well) and incubated at 37° C., 5% CO2 for 24 h. They were then co-incubated with various concentrations of Gem-DHA, gemcitabine HCl alone, or DHA alone for 4 h, and cell viability was determined using an MTT test.

BxPC-3 cells [2] = assay: Cytotoxicity of Gem-ARA, MTT assay, BxPC-3 cells; assay type: cell-based, human; conditions: Homo sapiens, up to 72 h, mean ± SD (n>3)
Description: (§2) To understand the effect of the omega-3 polyunsaturated fatty acid nature of the DHA (i.e., the docosahexaedecanoyl group) in the Gem-DHA on its cytotoxicity against tumor cells, gemcitabine was also conjugated to arachidonic acid, an omega-6 polyunsaturated fatty acid, to synthesize 4-(N)-arachidonyl gemcitabine (Gem-ARA) (FIG. 4). Human pancreatic cancer cells (MIA PaCa-2 or BxPC-3) were seeded (3,000/well) in 96-well plates. After overnight incubation, cells were treated with various concentrations of gemcitabine HCl or Gem-ARA at 37° C., 5% CO2 for up to 72 h. Gemcitabine HCl was dissolved in phosphate buffered saline (PBS, pH 7.4, 10 mM), and Gem-ARA was dissolved in DMSO. The maximum amount of DMSO added per well was 0.9 μL, which was found non-toxic. The number of viable cells after the incubation was determined using an MTT assay as described above. The 50% inhibition concentration (IC50) values were estimated using GraphPad prism 5 parameters curve fittings.

MIA PaCa-2 cells = assay: Cytotoxicity of Gem-ARA, MTT assay, MIA PaCa-2 cells; assay type: cell-based, human; conditions: Homo sapiens, up to 72 h, mean ± SD (n>3)
Description: as §2

Panc-1-Luc tumors [3] = assay: Antitumor activity against orthotopic Panc-1-Luc tumors in nude mice, with tumor histology; assay type: in vivo
Excerpt: Nude mice with intrapancreatically injected Panc-1-Luc human pancreatic cancer cells were used as a mouse model of pancreatic cancer. The National Institutes of Health guidelines for animal use and care were followed Animal protocols were approved by the Institutional Animal Care and Use Committee at the University of Texas at Austin. Panc-1-Luc cells (Muniz VP et al. Mol Cancer Res. 2011, 9(7), 867-877) were implanted orthotopically by injecting 1×10^6 cells into (the tail of) the pancreas.
Panc-1-Luc cell suspension was prepared at a concentration of 2×10^7 per ml in a 1:1 (v/v) mixture of DMEM and Matrigel. Tumor cells were then injected into the pancreas of male athymic nude mice (6-8 weeks, Charles River Laboratories, Wilmington, Mass.) following a surgical procedure (Raut CP et al. Cancer Biol Ther. 2004, 3(12), 1217-1224; Bruns CJ et al. Neoplasia. 1999, 1(1), 50-62). Briefly, after mice were anesthetized using isoflurane, the skin and peritoneum were cut open about 1 cm in length using sterile surgical scalpels. The pancreas was pulled out, and 50 μL of the cell suspension were injected slowly until a small bleb was formed. After the needle was withdrawn, a small cotton plug was applied for 10 s. The pancreas was returned back, the peritoneum was sutured with Monocryl™ bioresorbable sutures (Ethicon, Somerville, N.J.), and the skin was then closed using surgical clips. Mice were s.c. injected with buprenorphine (0.1 mg/kg) as a pain killer and were left to heal for one week. Tumor progress was monitored using an IVIS™ Spectrum imaging system (Caliper, Hopkinton, MA). For IVIS imaging, each mouse was i.p. injected with a luciferin solution (15 mg/ml) at a dose of 0.15 mg/g body weight in sterile DPBS, anesthetized with isoflurane, and imaged 10 min after luciferin injection. Four weeks after tumor implantation, mice with tumors were randomized into 3 groups (n=5-7) and intraperitoneally injected (i.p) with Gem-DHA (50 mg/kg, ˜0.087 mmole/kg), gemcitabine HCl (26.1 mg/kg, ˜0.087 mmole/kg), or left untreated. Gem-DHA was in a Tween 80/ethanol/water solution with 5% (w/v) of mannitol, and gemcitabine HCl was in sterile mannitol solution (5%, w/v). Treatments were repeated twice a week for a total 7 doses. Thirty days after the first treatment, mice were sacrificed and tumors were dissected from the pancreas, weighed, and fixed in formalin. The doses were based on the average weight of mice in the same group on the day of injection, and were adjusted only if the weight of an individual mouse was above or below 10% of the average weight.
Tumor tissues were sectioned and stained in the Histology and Tissue Analysis Core at Dell Pediatric Research Institute at the University of Texas at Austin or in the Department of
Molecular Carcinogenesis at the University of Texas M.D. Anderson Cancer Center at Science Park (Smithville, Texas) with hematoxylin & eosin (H&E), antibodies against cleaved lamin-A (apoptosis marker), CD-31 (angiogenesis marker), or Ki-67 (proliferation marker). Slides were then scanned, and images were taken using the ScanScope XT (Aperio Technologies, Vista, CA). […] In addition, several areas of necrosis can also be seen in the centers of the tumors. […] Several pyknotic cells with condensed chromatin can also be seen in tumors in mice that were treated with Gem-DHA.

Panc-1-Luc tumors [4] = assay: Orthotopic Panc-1-Luc tumors in nude mice: gemcitabine HCl versus mixture with DHA; assay type: in vivo; conditions: about 0.11 mmole/kg each, twice a week, 10 times, started 2 weeks after implantation
Description: The doses of both gemcitabine HCl (˜33.7 mg/kg) and DHA (˜35.3 mg/kg) were about 0.11 mmole/kg. Mice were sacrificed in the 8th week after tumor implantation, and the tumors were excised and weighed. The doses were based on the average weight of mice in the same group on the day of injection, and were adjusted only if the weight of an individual mouse was above or below 10% of the average weight.

[5] = design: species or system BALB/c mice; conditions: female, BALB/c, mouse, in vivo, iv, 75 mg/kg, 1 h
Description: The biodistribution of Gem-DHA was further evaluated in healthy BALB/c mice. Briefly, female BALB/c mice (Charles River, 14-16 weeks, n=3) were injected via the tail vein with Gem-DHA in a Tween 80/ethanol/water solution containing 5% (w/v) mannitol at a dose of 75 mg/kg. After 1 h, mice were euthanized to collect pancreas, lung, spleen, liver, heart, and kidneys. Gem-DHA was extracted from the samples and analyzed using HPLC. As a control, mice (n=3) were also injected with gemcitabine HCl (75 mg/kg) in 5% (w/v) mannitol solution and euthanized 1 h later to collect their pancreas. Gemcitabine was extracted using the following method. Briefly, once the pancreas was collected, it was weighed, placed into 0.25 ml of PBS containing 40 μg of tetrahydrouridine (a deoxycytidine deaminase inhibitor) and homogenized using a bead beater. Deoxyuridine (dU, 20 μl of 20 μg/ml) was then added into the homogenate as an internal standard. Acetonitrile was used to precipitate the proteins twice, and gemcitabine content in the supernatant was analyzed using HPLC. […] Therefore, it appeared that Gem-DHA preferred to distribute in pancreatic tissues.

[6] = tested on: advanced pancreatic cancer; conditions: cited from earlier work
[7] = molecular target: deoxycytidinedeaminases (dCDA) (Homo sapiens, UniProt P32320); conditions: upon injection, extracellularly and intracellularly; cited from earlier work
Chain of deoxycytidinedeaminases (dCDA) (P32320 whole entry): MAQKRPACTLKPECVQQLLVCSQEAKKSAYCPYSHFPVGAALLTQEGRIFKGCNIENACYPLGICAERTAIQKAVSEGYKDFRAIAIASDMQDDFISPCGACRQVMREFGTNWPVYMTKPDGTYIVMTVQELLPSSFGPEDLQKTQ

IC50 (BxPC-3 cells [1]): 0.0185 ± 0.0145 µM | IC50 (Panc-02 cells): 0.004 ± 0.0015 µM | Percent of injected compound recovered in each gram of pancreas [5]: 0.07±0.03%
SMILES: Nc1ccn([C@@H]2O[C@H](CO)[C@@H](O)C2(F)F)c(=O)n1 [Gemcitabine HCl, 2′, 2′-difluorodeoxycytidine, reference compound]
Cytotoxicity after 4 h of co-incubation (Panc-02 tumor cells): did not show any significant cytotoxicity | IC50 (BxPC-3 cells [2]): 0.00552 ± 0.00455 µM | IC50 (MIA PaCa-2 cells): 0.0502 ± 0.003 µM | Average tumor weight at the end of the study (Panc-1-Luc tumors [3]; 30 days after first treatment, versus untreated): not significantly different from that in mice that were left untreated | Inhibition of growth of Panc-1-Luc tumors (Panc-1-Luc tumors [3]; i.p., ~0.087 mmole/kg (Gem-DHA 50 mg/kg, gemcitabine HCl 26.1 mg/kg), twice a week, 7 doses): did not significantly inhibit the growth | Cleaved lamin-A positive staining in tumors (Panc-1-Luc tumors [3]; versus untreated mice): not different from that in mice that were not treated | Micro-vessel density (MVD) in tumors, anti-CD-31 staining (Panc-1-Luc tumors [3]; versus untreated mice): not different from that in mice that were not treated | Control of tumor growth (tumor weight) (Panc-1-Luc tumors [4]): did not reveal any significant difference | Improvement in median survival duration ([6]; patients with advanced pancreatic cancer): 5 week | 12-month survival ([6]; standard care for advanced pancreatic cancer): 18% | Fraction deaminated to dFdU [7]: over 90%
